Calls of active or inactive are those of the source. The rule behind the calls is not given here. Where only a bound is given, the exact number is not on record here.

The assay has as its target Influenza A virus M2 proton channel (A/TW/4845/1999 H1N1). In words: M2 proton channel binding, NMR based, influenza A virus H1N1 strain (AID 1549). The conditions noted are these: NMR binding screen, M2 protein.
What is called Kd is the constant that tells how readily two partners part at equilibrium. Consider `O=S(=O)(Cc1ccccc1Cl)Nc1ccccn1`, for which the Kd was > 4 mM (inactive). `CNC(=O)c1ccccc1N`: the Kd was > 4 mM (inactive). On to `Cc1c(C)[n+]([O-])c(-c2ccc([N+](=O)[O-])cc2)n1O`, for which the Kd is > 4 mM (inactive). The value for `CC(C)CC(=O)NC1CCSC1=O` (centres undefined) was > 4 mM (inactive). Take `O=C1CN(C(=O)c2ccccc2)c2ccccc2N1`: the Kd was > 4 mM (inactive). As to `O=C(O)c1cccc(CSc2ncccn2)c1`, the Kd was > 4 mM (inactive).

With `NC(=O)CSCc1ccc(Br)cc1`, the Kd was > 4 mM (inactive).

As to `CCc1noc(C)c1C(=O)N1CCCC1`, the Kd was > 4 mM (inactive). With `C=C[C@@](C)(O)CCC1C(=C)C[C@H](OC(C)=O)C2C(C)(C)CCCC12C` (some centres undefined) the figure was > 4 mM (inactive); with `COc1ccc(C(=O)O)cc1OC`, > 4 mM (inactive). `O=C(NCc1cccs1)c1ccc2c(c1)OCCO2`: the Kd is > 4 mM (inactive). With `CCCCCCCCCCCC1=C(O)C(=O)C=C(O)C1=O` the figure was > 4 mM (inactive). Take `CCNC(=S)NS(=O)(=O)c1ccccc1`: the Kd was > 4 mM (inactive). With `Cn1nc(C(=O)Nc2cccnc2)c2ccccc2c1=O` the figure was > 4 mM (inactive); with `CC(=O)c1csc(-c2cc(C)on2)n1`, > 4 mM (inactive). For the compound `CCc1nnsc1C(=O)Nc1nccs1`, the Kd was > 4 mM (inactive). The value for `OCc1snnc1-c1ccccc1` was > 4 mM (inactive); that for `O=C1CN(C(=O)CN2CCOCC2)c2ccccc2N1` was > 4 mM (inactive). As to `Nc1nc2c3ccccc3nc(Cc3ccccc3)n2n1`, the Kd was > 4 mM (inactive). The value for `CC(=O)Nc1cccc(-c2nc3ccccc3c(=O)o2)c1` was > 4 mM (inactive); that for `O=S(=O)(CCN1CCCC1)c1ccccc1` was > 4 mM (inactive); that for `CCOC(=O)C1=C(C)N2CCN=C2S1` was > 4 mM (inactive). As for `Cc1ccc(C)n1CCN1CCNCC1`, the Kd is > 4 mM (inactive). With `C/C=C(\C)c1nnc(NC(=O)C(C)C)s1`, the Kd was > 4 mM (inactive). For `Cn1ncc(SCc2ccco2)c(Cl)c1=O`, the Kd was > 4 mM (inactive).

Consider `CC(=O)CC1CCCCN1` (centres undefined), for which the Kd was > 4 mM (inactive).

With `Cn1c(SCCC(=O)O)nnc1-c1cccnc1`, the Kd was > 4 mM (inactive). The value for `O=C1NC2NC(=O)N(c3ccccc3)C2N1` (centres undefined) was > 4 mM (inactive); that for `Cc1cc(NC(=O)c2ccc3c(c2)OCCO3)no1` was > 4 mM (inactive); that for `O=C(O)C(O)C(O)C(O)C(O)C(=O)O` (centres undefined) was > 4 mM (inactive). For `OC[C@H]1O[C@@H](n2cnc3c(NCc4ccco4)ncnc32)[C@H](O)[C@@H]1O`, the Kd is > 4 mM (inactive). With `COc1c2c(c(CC=C(C)C)c3oc(=O)c(-c4ccc(O)cc4)c(O)c13)OC(C)(C)C=C2` the figure was > 4 mM (inactive); with `CS(=O)(=O)N/N=C/c1cccs1`, > 4 mM (inactive). Take `CCNC(=O)CC[C@H](N)C(=O)O`: the Kd was > 4 mM (inactive). With `O=c1c2ccccc2nc2n1CCC2O` (centres undefined) the figure was > 4 mM (inactive); with `O=C(Nc1ccon1)c1cccc(C(F)(F)F)c1`, > 4 mM (inactive). Consider `CC(=O)Nc1cccc(N2CCCC2=O)c1`, for which the Kd was > 4 mM (inactive).

On to `CC[C@H](CCC(C)[C@H]1CCC2C3CCC4C[C@@H](O)CC[C@]4(C)C3CC[C@@]21C)C(C)C` (some centres undefined), for which the Kd is > 4 mM (inactive). With `O=C(O)Cn1c(C(F)(F)F)nc2ccccc21` the figure was > 4 mM (inactive). Regarding `O=C(O)C1CSC(c2ccc(Cl)cc2)N1` (centres undefined), the Kd was > 4 mM (inactive). The value for `Oc1ccc([C@H]2Oc3cc(O)cc(O)c3C[C@H]2O)cc1` was > 4 mM (inactive); that for `CC(=O)Nc1ccc(S(N)(=O)=O)cc1` was > 4 mM (inactive). As for `O=C(O)/C=C/C(=O)Nc1ccccc1C(F)(F)F`, the Kd was > 4 mM (inactive). For the compound `CC(=O)OCC[C@H](C)CCC=C(C)C`, the Kd is > 4 mM (inactive).

For the compound `N#CCSc1nc(-c2ccccc2)cs1`, the Kd was > 4 mM (inactive).

For the compound `Cc1nc(NC(=O)c2cccnc2)ccc1Br`, the Kd was > 4 mM (inactive). With `O=C(NCc1ccncc1)c1cccc(F)c1` the figure was > 4 mM (inactive). The value for `CC(=O)O[C@@H]1CC2C(C)(C)[C@H](O)C=C[C@]2(C)C2CC[C@@]3(C)[C@H](c4ccoc4)OC(=O)C4OC43[C@@]21C` (some centres undefined) was > 4 mM (inactive); that for `O=C1CCC(=O)N1c1cccnc1` was > 4 mM (inactive). Turning to `c1ccc(C2NCCc3[nH]cnc32)cc1` (centres undefined), the Kd was > 4 mM (inactive). The value for `CC(N)C(=O)c1ccco1` (centres undefined) was > 4 mM (inactive); that for `COC(=O)C[C@@H]1C2(C)C(=O)[C@@H](CC3=C4CC(=O)O[C@@H](c5ccoc5)[C@]4(C)CCC32)[C@H](OC(C)=O)C1(C)C` (some centres undefined) was > 4 mM (inactive). With `Nc1cccc2nonc12` the figure was > 4 mM (inactive); with `c1ccc(CNc2ncnc3nc[nH]c23)nc1`, > 4 mM (inactive). With `COCc1nc(-c2cc(Br)ccc2OC)no1` the figure was > 4 mM (inactive); with `CC1=NN2C(=N)CC(=O)N=C2S1`, > 4 mM (inactive).

Turning to `O=C(O)/C=C1\NC(=O)c2ccccc21`, the Kd was > 4 mM (inactive).

Take `COCc1cc(C)nc2sc(C(=O)OC)c(N)c12`: the Kd was > 4 mM (inactive). With `COc1cc2c(cc1OC)C(=O)OC2` the figure was > 4 mM (inactive). In the case of `CSc1nc2cc(F)c(F)cc2n1C`, the Kd was > 4 mM (inactive). Regarding `c1ccc(CN2CCC3(CC2)Nc2ccccc2CO3)cc1`, the Kd was > 4 mM (inactive).

As to `O=C(O)c1cncc(-c2ccccc2)c1`, the Kd is > 4 mM (inactive). With `CC(C)n1c(-c2ccncc2)n[nH]c1=S`, the Kd is > 4 mM (inactive).

As for `CSCCNC(C)=O`, the Kd was > 4 mM (inactive). The value for `O=c1ccc2cc(O)c(O)cc2o1` was > 4 mM (inactive); that for `Nc1ncnc2c1ncn2CCN1CCCCC1` was > 4 mM (inactive); that for `COC(=O)Nc1nnc(-c2ccncc2)s1` was > 4 mM (inactive). With `O=C(O)CNC(=O)c1ccccc1` the figure was > 4 mM (inactive); with `COc1cccc(-c2csc(NC(C)=O)n2)c1`, > 4 mM (inactive); with `O=C(NCc1ccccc1Cl)c1cnn2cccnc12`, > 4 mM (inactive).

For `O=C(NCN1CCOCC1)c1cccnc1`, the Kd is > 4 mM (inactive). With `NC(=O)c1ccsc1NC(=O)c1cccnc1` the figure was > 4 mM (inactive); with `Cc1cc(N)on1`, > 4 mM (inactive). On to `COc1ccc2c(c1OC)C(=O)N(c1ncn[nH]1)C2`, for which the Kd is > 4 mM (inactive). On to `CC(=O)Cc1nsc(NC(=O)c2ccc(C)cc2)n1`, for which the Kd was > 4 mM (inactive). The value for `Cn1cnc2c1c(=O)[nH]c(=O)n2C` was > 4 mM (inactive). As for `CN1CCN(C(=O)c2ccccc2C(=O)O)CC1`, the Kd was > 4 mM (inactive). The value for `Cn1nc(C(=O)N2CCOCC2)c2ccccc2c1=O` was > 4 mM (inactive); that for `COc1ccc2c(c1)O[C@@H]1COc3cc(OC)c(OC)cc3[C@@H]1C2=O` was > 4 mM (inactive).

Take `O=C(O)CCS(=O)(=O)c1ccccc1`: the Kd is > 4 mM (inactive). For `COc1ccc(-c2coc3c(OC)c(OC)cc(OC)c3c2=O)cc1`, the Kd is > 4 mM (inactive). The value for `CN1CCC(NC(=O)Cc2c(F)cccc2Cl)CC1` was > 4 mM (inactive); that for `CSc1nn(-c2ccccc2)c(N)c1C#N` was > 4 mM (inactive). Regarding `COc1ccc(/C=C2\NC(=S)N(C)C2=O)cc1O`, the Kd is > 4 mM (inactive). The value for `CCC1(CC)C(=O)NC(=O)N=C1N` was > 4 mM (inactive); that for `COc1ccc2c(c1)=C(c1sc(N)nc1O)C(=O)N=2` was > 4 mM (inactive).

As for `[O-][n+]1cc(O)c(CN2CCOCC2)c2ccccc21`, the Kd was > 4 mM (inactive). `S=c1[nH]nc(-c2cccnc2)n1C1CCCCC1`: the Kd is > 4 mM (inactive). `Nc1ccc(S(=O)(=O)Nc2ccc(F)cc2F)cc1`: the Kd is > 4 mM (inactive).

In the case of `CC(C)(O)[C@@H]1[C@H]2OC(=O)[C@@H]1[C@]1(O)C[C@H]3O[C@]34C(=O)O[C@H]2[C@]14C`, the Kd was > 4 mM (inactive).

On to `C[C@H]1[C@H](C)CC[C@]2(C(=O)O)CC[C@]3(C)C(=CCC4[C@@]5(C)C[C@@H](O)[C@H](O)[C@@](C)(CO)C5[C@H](O)C[C@]43C)[C@H]12` (some centres undefined), for which the Kd is > 4 mM (inactive).

Regarding `CCOc1cc(S(=O)(=O)n2nc(C)cc2C)ccc1F`, the Kd is > 4 mM (inactive). Take `NC(=O)Cn1nc(-c2ccc(F)cc2)ccc1=O`: the Kd is > 4 mM (inactive).

For the compound `CC(Sc1ncn[nH]1)C(=O)O` (centres undefined), the Kd is > 4 mM (inactive). With `COC1=C(OC)C(=O)C(C/C=C(\C)CC/C=C(\C)CC/C=C(\C)CC/C=C(/C)CC/C=C(\C)CC/C=C(\C)CC/C=C(\C)CC/C=C(\C)CC/C=C(\C)CCC=C(C)C)=C(C)C1=O`, the Kd is > 4 mM (inactive). The value for `C/C(=C\CO)CC[C@H](C)CCC[C@H](C)CCCC(C)C` was > 4 mM (inactive); that for `NCc1ccc(-c2cccs2)s1` was > 4 mM (inactive); that for `CN1CCCC1C(=O)O` (centres undefined) was > 4 mM (inactive). The value for `NC(=O)CNC(=O)c1ccc2ccccc2n1` was > 4 mM (inactive). As for `CCN(CC)S(=O)(=O)c1cccc2nsnc12`, the Kd is > 4 mM (inactive).

For the compound `CN(C)c1oc(-c2ccccc2Cl)nc1C#N`, the Kd was > 4 mM (inactive).

Consider `C=C(C)C1Cc2c(ccc(C(=O)O)c2O)O1` (centres undefined), for which the Kd was > 4 mM (inactive). With `O=c1ccc2c([nH]1)CCCC2` the figure was > 4 mM (inactive). With `Cc1nn(CC(=O)Nc2ccccc2)c(=O)c2ccccc12` the figure was > 4 mM (inactive).

The values above are taken from PubChem BioAssay AID1549 (Sanford-Burnham Center for Chemical Genomics, 2009).
